Assays:
Cyclin-C [1] = biological target: T1, Cyclin-C (Homo sapiens, UniProt P24863); assay: Displacement of Kinase tracer 236 from recombinant full-length human N-terminal GST-fused CDK8 (1 to 464 residues)/cyclin C (1 to 283 residues) expressed in baculovirus expression system after 60 mins by TR-FRET assay
T1 sequence (P24863 whole entry): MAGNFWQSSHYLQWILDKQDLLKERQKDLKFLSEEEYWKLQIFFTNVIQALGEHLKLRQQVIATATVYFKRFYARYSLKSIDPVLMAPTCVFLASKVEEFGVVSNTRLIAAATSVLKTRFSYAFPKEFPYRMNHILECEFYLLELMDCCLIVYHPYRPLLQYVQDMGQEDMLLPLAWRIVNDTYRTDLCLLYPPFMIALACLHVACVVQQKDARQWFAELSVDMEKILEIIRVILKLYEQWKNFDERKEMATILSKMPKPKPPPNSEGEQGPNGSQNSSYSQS

Cyclin-C [2] = biological target: T1, Cyclin-C; assay: Inhibition of recombinant full-length human His-tagged CDK8/cyclinC expressed in baculovirus expression system by Lantha screen assay

Cc1ncccc1Oc1sc(C(N)=O)c2c1-c1c(cnn1C)CC2
IC50 (Cyclin-C [1]): 1.6 nM

CC1CCc2nc(N)c(C#N)c(-c3cccnc3)c2C1 (configuration not stated) [2-azanyl-6-methyl-4-pyridin-3-yl-5,6,7,8-tetrahydroquinoline-3-carbonitrile]
IC50 (Cyclin-C [2]): 500 nM

Source: BindingDB's records for doi:10.1016/j.ejmech.2018.11.076 (Shaoxing University, 2019)
